Measurements as given in US20260335282A1, “NOVEL 3-ARYLIDENE-2-INDOLINONE DERIVATIVES FOR THERAPEUTIC USE” (ISTANBUL UNIVERSITESI REKTORLUGU, priority 2022, published 2026).
pIC50: −log10 of the molar value. Where “and” joins values, the source holds several entries; their conditions need not be identical. Equal values may be shown once. Read-outs that look alike come from different tables or passages of the source.

Assays:
Format in all cases: cell-based, human
[1] = system: MCF-7 cells; test: MTT cytotoxicity, breast cancer cells MCF-7; details: MTT
From the text: (§1) The cytotoxicity, general tyrosine kinase inhibitory effects and cell death (apoptosis/necrosis) assays of 1-benzyl-3-(1H-indol-3-ylmethylidene)-1,3-dihydro-2H-indol-2-one derivatives (Formula 5) of the present invention are studied by the following methods. […] HUVEC (human umbilical vein endothelial cell), MCF-10F (human breast epithelial cell) and Beas2b (human lung bronchial epithelial cell) cell lines have been used as healthy control cells in MTT experiments.
(§2) Beas2b (human lung bronchiole epithelial cell) and HEK293 (renal tubule epithelium) cells used as normal cell lines were cultured in RPMI medium, and HUVEC (human umbilical cord endothelial cells) and MCF-10F (human breast epithelial cell) cells are cultured in DMEM medium containing 100 µg/ml penicillin/streptomycin. The cells, which covered 70% of the culture flask, are washed with phosphate buffer and then removed from the surface of the flask by application of trypsin-ethylenediamine tetraacetic acid (Trypsin-EDTA; 0.25%) solution, passaged, counted and seeded on appropriate plates before each experiment. Cells are treated with a total of 45 2-indolinone compounds (5) at concentrations of 0.1, 1, 5 and 10 μM. Stock compounds are prepared in 1 ml dimethylsulfoxide (DMSO) and 4 different dilutions were prepared with medium and performed to the cells. Control group cells are treated with DMSO at a similar concentration to the experimental groups.
(§3) MTT (3-(4,5-dimethylthiazol-2-yl)-2,5-diphenyl-2H-tetrazolium bromide) colorimetric assay provides quantitation of viable cells with ongoing mitochondrial activity in culture medium. According to the standard procedure in cell culture conditions, cells are maintained in RPMI-1640 and DMEM culture media containing 10% FBS and 1% penicillin/streptomycin. The trypan blue test is used for cell counts.
(§4) The effects of 45 2-indolinone compounds (5) on cell viability in all cancer cell lines are investigated by MTT assay. Cells are seeded in a 96-well flat bottom plate with 5000 cells in each well and 2-indolinone compounds (5) at concentrations of 0.1, 1, 5 and 10 μM are performed to the cells the next day. After 48 and/or 72 hours following treatment with 2-indolinone compounds, 50 μl of the supernatant is slowly discarded (as it was acid medium) and MTT at a concentration of 5 mg/ml is added to each well in a volume of 10 μl. After incubation for 4 hours, the formazan crystals formed in the wells are dissolved by adding 100 μl DMSO and the optical density is read at 570 nm test wavelength and 630 nm reference wavelength. Cell viability is expressed as % cell viability by comparing the absorbance of control and test wells. IC50 value is calculated from the dose-response curves prepared for each compound. In addition, the possible DMSO effect is eliminated by preparing negative control wells compatible with the amount of DMSO contained in the compounds. To understand the reaction of the compounds with MTT, cell-free (MTT+compounds) negative controls are prepared at the concentrations used (Mosmann, 1983). […] The absorbance values obtained are compared to the control and statistically evaluated by unpaired t-test using “Graphpad Prism 5.04” software. “P<0.05” is accepted as significant. When evaluating cytotoxic effects, the present inventors aim for the inventive compounds to be effective in cancer cells and ineffective in healthy cells. The inventive compounds have also been compared with sunitinib, one of the reference chemotherapy drugs currently used in treatment.
(§5) Among the compounds of the present invention, those that killed cancer cells by at least 50% (p<0.05) are selected and tested whether a 10-fold concentration of the M concentration at the IC50 value is toxic to normal healthy cells.

[2] = system: MDA-MB-231 cells; test: MTT cytotoxicity, breast cancer cells MDA-MB-231; details: read-out: IC50, MDA-MB-231 (breast), MTT
From the text: as §1, §2, §3, §4, §5

[3] = system: A549 cells; test: MTT cytotoxicity, lung cancer cells A549; details: no * mark (incubation time not specified)
From the text: as §1, §2, §3, §4, §5

[4] = system: CAKI-1 cells; test: MTT cytotoxicity, kidney cancer cells CAKI-1
From the text: as §1, §2, §3, §4, §5

[5] = system: A498 cells; test: MTT cytotoxicity, kidney cancer cells A498; details: MTT
From the text: as §1, §2, §3, §4, §5

[6] = system: MCF-10F/Beas2b cells; test: MTT cytotoxicity, healthy cells MCF-10F/Beas2b; details: for pIC50: MTT
From the text: as §1, §2, §3, §4, §5

[7] = system: HUVEC cells; test: MTT cytotoxicity, healthy cells HUVEC; details: for pIC50: MTT
From the text: as §1, §2, §3, §4, §5

[8] = system: HT-29 cells; test: MTT cytotoxicity, colon cancer cells HT-29; details: MTT, no * mark (incubation time not specified)
From the text: as §1, §2, §3, §4

[9] = system: HCT-116 cells; test: MTT cytotoxicity, colon cancer cells HCT-116; details: no * mark (incubation time not specified)
From the text: as §1, §2, §3, §4

[10] = system: MIAPaCa-2 cells; test: MTT cytotoxicity, pancreas cancer cells MIAPaCa-2; details: MTT
From the text: as §1, §2, §3, §4

[11] = *: effective 72 hours after incubation
[12] = no * mark (incubation time not specified)
[13] = no * mark (incubation time not given)

Structure (SMILES)	pIC50 [3]	pIC50 [4, 12]	pIC50 [6, 12]	pIC50 [7, 12]	pIC50 [8]	pIC50 [9]	pIC50 [10, 12]	pIC50 [1, 12]	pIC50 [2, 13]	pIC50 [5, 12]	pIC50 [10, 11]	pIC50 [4, 11]	also measured
O=C1/C(=C\c2c[nH]c3ccccc23)c2cc(F)ccc2N1Cc1ccc(Cl)cc1 [12C]	5.77	5.55	5.61	6.26	5.97	6.19	6.31	–	–	–	–	–	pIC50 [1, 11]: 5.58; pIC50 [2, 11]: 5.17; pIC50 [5, 11]: 6.20; pIC50 [6, 11]: 5.61
Cc1cccc(CN2C(=O)/C(=C\c3c[nH]c4ccccc34)c3cc(F)ccc32)c1 [13C]	5.46	< 5.00	5.58	5.65	< 5.00	< 5.00	–	< 5.00	< 5.00	5.58	5.82	–	–
O=C1C(=Cc2c[nH]c3ccccc23)c2cc(Cl)ccc2N1Cc1cccc(Cl)c1 [18C]	5.18	5.46	5.97	5.97	5.51	5.40	–	5.26	5.10	5.76	5.81	–	–
O=C1/C(=C\c2c[nH]c3ccccc23)c2cc(Cl)ccc2N1Cc1ccc(Cl)cc1 [19C]	5.26	< 5.00	5.73	5.73	< 5.00	< 5.00	< 5.00	5.50	< 5.00	6.29	–	–	–
O=C1/C(=C\c2c[nH]c3ccccc23)c2cccc(Cl)c2N1Cc1ccc(F)cc1 [24C]	5.09	–	5.90	5.90	6.14	5.63	5.95	5.29	5.13	5.59	–	5.24	–
O=C1/C(=C\c2c[nH]c3ccccc23)c2cccc(Cl)c2N1Cc1cccc(Cl)c1 [25C]	< 5.00	–	5.74	5.74	< 5.00	5.54	–	5.35	< 5.00	5.54	5.49	5.09	–
Cc1ccc(CN2C(=O)/C(=C\c3c[nH]c4ccccc34)c3cccc(Cl)c32)cc1 [28C]	< 5.00	–	–	< 5.00	< 5.00	< 5.00	< 5.00	< 5.00	< 5.00	–	–	5.12	pIC50 [5, 11]: 6.22; Selectivite Index (SI), MCF-10F/Beas2b (Table 1) ([6]; MCF-10F/Beas2b vs breast or kidney cancer cells, cancer line not given): 1.5; pIC50 [6, 11]: 5.75; Selectivite Index (SI), HUVEC (Table 1) ([7]; HUVEC vs breast or kidney cancer cells, cancer line not given): > 15.6
O=C1/C(=C\c2c[nH]c3ccccc23)c2cccc(F)c2N1Cc1cccc(F)c1 [30C]	5.17	–	5.72	–	< 5.00	5.69	5.72	5.37	5.38	5.18	–	5.11	pIC50 [7, 11]: 6.03
O=C1/C(=C\c2c[nH]c3ccccc23)c2cccc(F)c2N1Cc1ccc(F)cc1 [31C]	5.44	–	5.35	5.90	5.40	6.41	6.14	5.15	–	5.55	–	5.04	pIC50 [2, 11]: 5.04; Selectivite Index, MCF-10F/Beas2b (Table 2) ([6]; MCF-10F/Beas2b vs colon or pancreas cancer cells, cancer line not given): 11.33 and 6.05; Selectivite Index, HUVEC (Table 2) ([7]; HUVEC vs colon or pancreas cancer cells, cancer line not given): 3.23 and 1.72
